Values of other authors as cited in patent publication US10821075B1, “Compositions for topical application of a medicaments onto a mammalian body surface” (priority 2017, dated 2020).

Settings: weak acid drug

pKa: 4.30
Structure (SMILES): CC(C(=O)O)c1cccc(C(=O)c2ccccc2)c1 (stereo not shown) [ketoprofen]
